Source: patent US9000010B2, “Alkyl-heterocycle carbamate derivatives, their preparation and their therapeutic application” (Sanofi, priority 2010, dated 2015)

What was measured:
[1] = biological target: T1, FAAH (Fatty Acid Amide Hydrolase) (Mus musculus, UniProt O08914); assay: Radioenzymatic test of FAAH inhibition: hydrolysis of anandamide [ethanolamine 1-3H] by mouse brain membrane homogenates; assay type: biochemical; settings: mouse brain membrane homogenate; preincubation 20 min at 25° C.; anandamide 10 μM; read-out: CI50 (concentration which inhibits the control enzymatic activity of FAAH by 50%)
T1 construct: The membrane homogenates are prepared at the time of use by homogenization of the tissues; from tissue; host or cells: mouse brain (minus the cerebellum), membrane homogenate
T1 sequence (O08914 1-579): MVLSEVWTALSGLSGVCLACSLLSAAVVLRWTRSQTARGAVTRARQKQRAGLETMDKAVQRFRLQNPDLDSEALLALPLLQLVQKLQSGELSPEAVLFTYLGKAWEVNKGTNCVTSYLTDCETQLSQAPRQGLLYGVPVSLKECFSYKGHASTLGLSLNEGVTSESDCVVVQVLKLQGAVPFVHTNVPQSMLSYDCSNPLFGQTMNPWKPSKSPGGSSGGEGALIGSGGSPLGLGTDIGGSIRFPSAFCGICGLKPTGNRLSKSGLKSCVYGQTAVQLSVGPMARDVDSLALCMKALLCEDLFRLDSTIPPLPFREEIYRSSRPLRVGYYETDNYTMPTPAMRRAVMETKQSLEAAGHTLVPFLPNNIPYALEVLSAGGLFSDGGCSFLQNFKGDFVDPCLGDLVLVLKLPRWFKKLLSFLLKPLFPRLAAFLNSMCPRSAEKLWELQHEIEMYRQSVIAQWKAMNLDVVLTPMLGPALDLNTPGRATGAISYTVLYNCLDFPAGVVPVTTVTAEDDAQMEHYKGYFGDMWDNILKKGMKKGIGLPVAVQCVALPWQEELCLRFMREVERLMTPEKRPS
Description: The compounds of the invention form the subject of pharmacological trials which make it possible to determine their inhibitory effect on the enzyme FAAH (Fatty Acid Amide Hydrolase).
Thus, mouse brains (minus the cerebellum) are removed and stored at −80° C. The membrane homogenates are prepared at the time of use by homogenization of the tissues using a Precellys® device in the reaction buffer (Tris-HCl 10 mM pH=8, NaCl 150 mM and ethylenediaminetetraacetic acid (EDTA) 1 mM). The enzymatic reaction is carried out in 96-well MultiScreen filtration plates in a final volume of 70 μl. Reaction buffer supplemented with bovine serum albumin free from fatty acids (BSA, 1 mg/ml) is used for the enzymatic reaction, the dilution of the compounds and the dilution of the anandamide [ethanolamine 1-^3H]. Reaction buffer comprising the BSA (43 μl/well), the diluted test compounds at different concentrations (7 μl/well comprising 1% of DMSO) and the membrane preparation (10 μl/well, i.e. 200 μg of tissue per trial) are successively added to the wells. After preincubating the compounds with the enzyme at 25° C. for 20 minutes, the reaction is initiated by the addition of anandamide [ethanolamine 1-^3H] (specific activity of 15-20 Ci/mmol) diluted with cold anandamide (10 μl/well, final concentration of 10 μM, 0.01 μCi, per trial). After incubating at 25° C. for 20 minutes, the enzymatic reaction is halted by addition of a […] active charcoal solution prepared in a 1.5M NaCl and 0.5M HCl buffer (50 μl/well). The mixture is stirred for 10 minutes and then the aqueous phase comprising the [1-^3H]ethanolamine is recovered by filtration under vacuum and counted by liquid scintillation.

SMILES | IC50 [1] | melting point
NC(=O)c1cc(COC(=O)N2CC[C@@H](COc3ccc4ccccc4c3)C2)on1 (single isomer, unassigned) [No. 200] | 122 nM | 138 to 140 °C
O=C(OCc1nccs1)N1CCC(COc2ccc3c(Cl)cccc3c2)C1 (racemic) [No. 196, Thiazol-2-ylmethyl (+/−)-3-(5-chloronaphth-2-yloxymethyl)pyrrolidine-1-carboxylate] | 252 nM | 100 to 102 °C
NC(=O)c1cc(COC(=O)N2CCC(CCOc3ccc(OC(F)(F)F)cc3)CC2)on1 [No. 199, 3-Carbamoylisoxazol-5-ylmethyl 4-[2-(4-{trifluoromethoxy}phenoxy)ethyl]piperidine-1-carboxylate] | 350 nM | 112 to 115 °C

The next compounds have a lower IC50 [1] than those just listed; values first:

IC50 [1] | melting point | SMILES
86 nM | 83 to 85 °C | O=C(OCc1cscn1)N1CCC(COc2cnc3ccccc3c2)C1 (racemic) [No. 26, Thiazol-4-ylmethyl (+/−)-3-(quinolin-3-yloxymethyl)-pyrrolidine-1-carboxylate]
14 nM |  | O=C(OCc1nccs1)N1CCC(CCOc2ccc(C3CCCC3)cc2)CC1 [No. 38, Thiazol-2-ylmethyl 4-[2-(4-cyclopentylphenoxy)-ethyl]piperidine-1-carboxylate]
8 nM | 139 to 141 °C | NC(=O)c1cc(COC(=O)N2CC[C@H](COc3ccc4ccccc4c3)C2)on1 (single isomer, unassigned) [No. 202]
